Measurements taken from patent US20130143902A1, “COMPOSITIONS AND METHODS OF TREATING A PROLIFERATIVE DISEASE WITH A QUINAZOLINONE DERIVATIVE” (GILEAD CALISTOGA LLC, priority 2011, published 2013).
Where “and” joins values, the source holds several entries; their conditions need not be identical. Equal entries are not always repeated.

What was measured:
PI3K p110α = PI3K p110α (Mus musculus, UniProt P42337); assay: Cellular p110α signaling: PDGF-stimulated MEFs, pAkt Western blot; type: cell-based, murine
Procedure: (§2) To analyze PI3K p110α and p110β signaling, murine embryo fibroblast (MEFs) were removed from FBS and starved for 2 hours followed by stimulation with 10 ng/mL of PDGF (Cell Signaling Technologies, Danvers, Mass.) or 10 μM of LPA (Echelon, Salt Lake City, Utah) for 10 minutes at 37° C., respectively. After washing once in cold phosphate-buffered saline (PBS), the cell pellet was resuspended in 1× cell lysis buffer (Cell Signaling Technologies) supplemented with mini protease inhibitor mix (Roche, Indianapolis, Ind.), phosphate inhibitor cocktail set I and II (Calbiochem, San Diego, Calif.) for 15 minutes on ice. Whole-cell lysates were obtained by centrifugation at 16,000 g for 10 minutes at 4° C., and the soluble protein was analyzed by Western blotting for Akt and pAkt levels. To analyze PI3K p110δ and p110γ signaling, basophil activation was measured in isolated PBMC or whole blood using the Flow2 CAST kit according to the manufacture's standardized methods (Buhlman Laboratories AG, Switzerland). Briefly, p110δ was activated with anti-FCεRI and p110γ was activated with fMLP (2 μM) in the absence or presence of compounds. To monitor the basophil cell population and cellular activation, anti-CD63-FITC and anti-CCR3-PE antibodies were added to each sample. Cells were fixed and analyzed on a FC500 MPL flow cytometer (Beckman Coulter, Brea, Calif.).

PI3K p110β = biological target: T1, PI3K p110β (Mus musculus, UniProt Q8BTI9); assay: Cellular p110β signaling: LPA-stimulated MEFs, pAkt Western blot; type: cell-based, murine; details: EC50 p110β, cellular assay
T1 construct: endogenous in cells; host or cells: murine embryo fibroblasts (MEFs)
Procedure: as §2

[1] = system: pAkt in T Cell Malignancies; assay: pAkt activity, T cell malignancies; type: cell-based; details: N = 7
Source text: Cellular viability and pAkt activity were used to determine effects of Compounds A, C, and D in solid tumor, B-cell malignancies, and T-cell malignancies.

PC3 [2] = assay: pAkt pathway inhibition, PC3; type: cell-based; details: Homo sapiens, PC-3; PC3, Prostate
UACC-62 = assay: pAkt pathway inhibition, UACC-62; type: cell-based; details: Homo sapiens; UACC-62, Melanoma
LNCaP [3] = assay: pAkt pathway inhibition, LNCaP; type: cell-based; details: Homo sapiens, Prostate
T47D [4] = assay: pAkt pathway inhibition, T47D; type: cell-based; details: Homo sapiens, Breast
KM-12 = assay: pAkt pathway inhibition, KM-12; type: cell-based; details: Homo sapiens, KM12; KM-12, Colon
RXF-393 = assay: pAkt pathway inhibition, RXF-393; type: cell-based; details: Homo sapiens; RXF-393, Renal
MDA-MB-468 = assay: pAkt pathway inhibition, MDA-MB-468; type: cell-based; details: Homo sapiens; MDA-MB-468, Breast
LN229 = assay: pAkt pathway inhibition, LN229; type: cell-based; details: Homo sapiens, LN-229; LN229, Glioma
U87MG = assay: pAkt pathway inhibition, U87MG; type: cell-based; details: Homo sapiens, U-87 MG, Glioma
U138MG = assay: pAkt pathway inhibition, U138MG; type: cell-based; details: Homo sapiens, U138-MG, Glioma
U251 = assay: pAkt pathway inhibition, U251; type: cell-based; details: Homo sapiens, U-251; U251, Glioma
VCaP = assay: pAkt pathway inhibition, VCaP; type: cell-based; details: Homo sapiens, Prostate
22Rv1 [5] = assay: pAkt pathway inhibition, 22Rv1; type: cell-based; details: Homo sapiens; 22Rv1, Prostate
PC3 [6] = assay: Viability (AlamarBlue), PC3; type: cell-based; details: Homo sapiens, PC-3; PC3, Prostate
Procedure: (§1) For primary T-ALL samples, cell viability was determined using the BD Cell Viability kit (BD Biosciences) and fluorescent counting beads as previously described in Armstrong, F. et al., NOTCH is a key regulator of human T-cell acute leukemia initiating cell activity, Blood 113, 1730-1740 (2009). Cells were plated with MS5-DL1 stroma cells. After 72 hours following treatment, cells were harvested and stained with an APC-conjugated anti-human CD45 according to the manufacturer's instructions. For solid tumor cell lines, cellular viability was determined using the AlamarBlue kit (Invitrogen). About 10,000 cells in 100 μL of media containing 10% FBS were aliquoted into individual wells of a 96-well plate and treated with vehicle (DMSO) or compound in triplicate for 24 hours. Ten μL of AlamarBlue reagent was added to each well and incubated for 4 hours at 37° C. with 5% CO2. Fluorescence was measured with an excitation wavelength at 530 to 560 nm and emission wavelength at 590 nm using Spectramax M5 plate reader (Molecular Devices, Sunnyvale, Calif.).

LNCaP [7] = assay: Viability (AlamarBlue), LNCaP; type: cell-based; details: Homo sapiens, Prostate
Procedure: as §1

T47D [8] = assay: Viability (AlamarBlue), T47D; type: cell-based; details: Homo sapiens, Breast
Procedure: as §1

22Rv1 [9] = assay: Viability (AlamarBlue), 22Rv1; type: cell-based; details: Homo sapiens; 22Rv1, Prostate
Procedure: as §1

PTEN null T-ALL = assay: Diseased Lck/PTEN^fl/fl mice with PTEN null T-ALL; type: in vivo; details: 30 mg/kg BID; for leukemia cells: about 125 million at Day 0
Procedure: Mouse whole blood was incubated with appropriate antibodies and processed using the BD Bioscience BD FACS Lysing Solution according to the manufacturer's instructions. Immediately after lysis, cells were permeabilized with 0.025% Tween-20 in lysing solution for 15 minutes, then incubated with Ki67 antibodies. Single cell suspensions of thymocytes were isolated and stained with the appropriate antibodies as described in Swat, W. et al., Essential role of PI3 Kdelta and PI3 Kgamma in thymocyte survival, Blood 107, 2415-2422 (2006).
All mice were kept in specific pathogen-free facility at Columbia University Medical Center. All procedures were performed in accordance with the guidelines of the Institutional Animal Care and Use Committee. Lck-cre, NOD.Cg-Prkdc^scid Il2rg^tmlWjl/Sz and Gt(ROSA)26Sor^tml(Luc)Kael/J mice were obtained from the Jackson Laboratory. Mice deficient for PTEN in the T-cell lineage were generated by crossing Lck-cre with floxed PTEN. P110γ^−/− and p110δ^−/− mice as described in Swat, W. et al., Essential role of PI3 Kdelta and PI3 Kgamma in thymocyte survival, Blood 107, 2415-2422 (2006). The animals were intercrossed with Lck-cre/PTEN^fl/fl animals to generate mice homozygous mutant for either p110γ or p110δ and PTEN or homozygous mutant for p110γ, 110δ, and PTEN.
Lck/PTEN^fl/fl mice were crossed with the mice having a luciferase cDNA, preceded by a LoxP-stop-LoxP cassette was introduced into the ubiquitously expressed ROSA26 locus. […] The results are consistent with the reduction in whole blood cells and CD4 single positive population of tumor cells.
Lck/PTEN^fl/fl mice having T-ALL were administered with Compound B at an oral dose of 10 mg/kg every 8 hours or DMSO vehicle for a period of 7 days. […] Compound B extended the median survival to 45 days compared to 7.5 days for the vehicle group (data not shown).
Diseased Lck/PTEN^fl/fl mice (i.e. Lck/PTEN^fl/fl mice diagnosed with T-ALL) were treated with Compounds B for a period of 7 days. Mice were examined for sequential blood counts, peripheral smears, and flow cytometric analyses. […] Forward scatter (FSC) and Ki67 staining were indicators of cell size and proliferation, respectively; and apoptosis was detected by assessing the […] population after PI staining.
PTEN^fl/fl mice were crossed with the mice having a luciferase cDNA, preceded by a LoxP-stop-LoxP cassette was introduced into the ubiquitously expressed ROSA26 locus. Progeny were then crossed with Lck-cre transgenics to delete PTEN in T-cell progenitors and induce expression of luciferase. Imaging on T-ALL tumor bearing mice was performed at Day 0 and 4 after treatment of Compound B or vehicle.

T1 sequence (Q8BTI9 whole entry): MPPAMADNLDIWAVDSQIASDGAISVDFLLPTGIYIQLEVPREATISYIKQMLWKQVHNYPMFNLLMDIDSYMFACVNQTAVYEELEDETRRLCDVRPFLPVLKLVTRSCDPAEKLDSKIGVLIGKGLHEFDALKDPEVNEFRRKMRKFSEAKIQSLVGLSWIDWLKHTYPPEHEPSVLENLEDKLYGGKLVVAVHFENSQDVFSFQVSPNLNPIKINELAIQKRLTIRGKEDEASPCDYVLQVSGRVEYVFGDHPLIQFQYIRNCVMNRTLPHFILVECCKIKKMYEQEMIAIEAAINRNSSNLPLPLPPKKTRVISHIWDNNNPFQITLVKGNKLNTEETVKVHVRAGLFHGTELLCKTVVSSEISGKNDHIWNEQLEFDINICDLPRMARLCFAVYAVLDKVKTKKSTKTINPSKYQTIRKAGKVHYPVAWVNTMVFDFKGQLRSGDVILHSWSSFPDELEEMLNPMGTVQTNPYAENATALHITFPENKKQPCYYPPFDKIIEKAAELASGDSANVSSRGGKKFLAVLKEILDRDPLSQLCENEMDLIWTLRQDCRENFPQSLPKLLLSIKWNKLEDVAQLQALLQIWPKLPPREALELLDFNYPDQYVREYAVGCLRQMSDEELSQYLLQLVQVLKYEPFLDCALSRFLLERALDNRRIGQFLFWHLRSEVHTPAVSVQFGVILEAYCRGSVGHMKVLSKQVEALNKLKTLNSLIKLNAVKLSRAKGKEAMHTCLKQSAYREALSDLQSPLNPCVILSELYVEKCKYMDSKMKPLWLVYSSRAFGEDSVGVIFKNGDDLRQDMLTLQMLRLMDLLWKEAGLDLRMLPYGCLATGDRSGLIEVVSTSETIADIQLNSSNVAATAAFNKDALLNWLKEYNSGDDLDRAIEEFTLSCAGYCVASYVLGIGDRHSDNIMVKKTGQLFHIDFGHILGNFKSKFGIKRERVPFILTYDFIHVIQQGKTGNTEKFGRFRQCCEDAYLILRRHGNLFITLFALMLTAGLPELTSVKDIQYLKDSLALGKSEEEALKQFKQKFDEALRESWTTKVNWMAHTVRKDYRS
T1 sequence (P26450 whole entry partner): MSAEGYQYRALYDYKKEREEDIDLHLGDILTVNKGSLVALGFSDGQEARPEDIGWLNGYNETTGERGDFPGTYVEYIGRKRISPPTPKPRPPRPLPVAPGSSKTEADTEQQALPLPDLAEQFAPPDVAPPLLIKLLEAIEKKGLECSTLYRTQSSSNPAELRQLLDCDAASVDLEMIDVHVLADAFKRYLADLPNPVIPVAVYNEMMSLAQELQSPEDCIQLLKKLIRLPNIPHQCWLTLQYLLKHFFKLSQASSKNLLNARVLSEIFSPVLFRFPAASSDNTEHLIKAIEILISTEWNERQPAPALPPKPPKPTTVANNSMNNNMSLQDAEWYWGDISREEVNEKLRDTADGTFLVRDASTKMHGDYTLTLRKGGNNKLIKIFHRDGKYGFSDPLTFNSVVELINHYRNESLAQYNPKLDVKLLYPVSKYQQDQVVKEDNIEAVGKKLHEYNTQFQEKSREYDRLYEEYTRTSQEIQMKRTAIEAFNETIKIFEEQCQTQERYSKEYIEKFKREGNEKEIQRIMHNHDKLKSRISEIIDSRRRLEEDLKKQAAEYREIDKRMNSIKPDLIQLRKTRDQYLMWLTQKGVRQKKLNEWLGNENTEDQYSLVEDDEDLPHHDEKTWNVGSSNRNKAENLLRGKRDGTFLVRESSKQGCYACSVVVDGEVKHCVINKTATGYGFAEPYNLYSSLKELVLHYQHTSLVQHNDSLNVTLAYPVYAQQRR
Chain of PI3K p110α (P42337 whole entry): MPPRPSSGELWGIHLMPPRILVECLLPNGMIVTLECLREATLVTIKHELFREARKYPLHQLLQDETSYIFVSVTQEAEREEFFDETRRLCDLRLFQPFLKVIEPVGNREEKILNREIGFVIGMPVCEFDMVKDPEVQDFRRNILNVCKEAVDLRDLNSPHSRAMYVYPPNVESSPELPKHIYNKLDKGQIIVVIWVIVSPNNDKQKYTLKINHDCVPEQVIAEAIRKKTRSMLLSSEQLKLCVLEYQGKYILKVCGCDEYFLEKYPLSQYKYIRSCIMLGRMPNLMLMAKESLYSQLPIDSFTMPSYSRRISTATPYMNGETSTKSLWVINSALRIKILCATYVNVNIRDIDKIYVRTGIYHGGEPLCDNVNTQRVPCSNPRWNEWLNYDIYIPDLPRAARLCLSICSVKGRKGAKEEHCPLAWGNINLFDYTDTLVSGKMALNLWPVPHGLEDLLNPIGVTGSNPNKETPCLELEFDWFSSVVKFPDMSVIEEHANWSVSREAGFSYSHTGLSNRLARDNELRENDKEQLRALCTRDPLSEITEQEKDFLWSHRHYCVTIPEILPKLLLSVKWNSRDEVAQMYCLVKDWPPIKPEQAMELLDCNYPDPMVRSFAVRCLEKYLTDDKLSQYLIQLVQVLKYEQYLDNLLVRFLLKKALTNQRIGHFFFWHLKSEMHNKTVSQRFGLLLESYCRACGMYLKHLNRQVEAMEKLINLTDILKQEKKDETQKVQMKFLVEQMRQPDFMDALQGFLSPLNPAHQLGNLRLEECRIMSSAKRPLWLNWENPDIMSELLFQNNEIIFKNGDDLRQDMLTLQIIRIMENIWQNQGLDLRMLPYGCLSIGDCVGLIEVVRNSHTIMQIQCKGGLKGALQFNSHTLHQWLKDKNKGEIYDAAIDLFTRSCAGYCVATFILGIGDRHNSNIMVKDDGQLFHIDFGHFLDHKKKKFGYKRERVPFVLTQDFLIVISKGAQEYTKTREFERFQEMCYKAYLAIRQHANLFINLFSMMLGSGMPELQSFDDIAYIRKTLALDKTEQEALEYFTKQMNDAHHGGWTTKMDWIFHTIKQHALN
Chain of PI3K p110α (P26450 whole entry partner): as the sequence (P26450 whole entry partner) above

CC(Nc1ncnc2[nH]cnc12)c1nc2cccc(Cl)c2c(=O)n1-c1ccccc1 (stereo not drawn) [Compound A, 2-(1-(9H-purin-6-ylamino)ethyl)-5-chloro-3-phenylquinazolin-4(3H)-one] was tested, and the EC50 (PI3K p110α) was 6000 nM, the EC50 (PI3K p110β) was ~270 nM and 270 nM and the EC50 [1] was 310 nM. It also gave an EC50 (PC3 [2]) of 155 nM, an EC50 (UACC-62) of 45 nM and an EC50 (LNCaP [3]) of 34 nM. For the same compound, the EC50 (T47D [4]) was 502 nM, the EC50 (KM-12) was 897 nM and the EC50 (RXF-393) was 25 nM. The EC50 (MDA-MB-468) was 56 nM, the EC50 (LN229) was 10 nM and the EC50 (U87MG) was 17 nM. For the same compound, the EC50 (U138MG) was 2290 nM, the EC50 (U251) was 2250 nM and the EC50 (VCaP) was 1200 nM. The EC50 (22Rv1 [5]) was 250 nM, the GI50 (PC3 [6]) was 2400 nM and the GI50 (LNCaP [7]) was 220 nM. For the same compound, the GI50 (T47D [8]) was 1700 nM, the GI50 (22Rv1 [9]) was 2300 nM and the CD3 levels (PTEN null T-ALL) was “reduced”. For the same compound, the leukemia cells (PTEN null T-ALL; Day 4) was “about 5.6 million”, the leukemia cells (PTEN null T-ALL; Day 7) was “about 4.2 million” and the white blood cells (PTEN null T-ALL; by Day 4) was “significant reduction”.
